Results on 26 compounds are retold here after patent publication US20230167073A1 (Teijin Pharma Limited, priority 2020, published 2023).

SMILES strings stand for the structures.

For the experiment, the target named is T1, Human TRPC6 (Homo sapiens, UniProt Q9Y210).
T1 construct: expressed in transfected cells
T1 sequence (Q9Y210 1-931): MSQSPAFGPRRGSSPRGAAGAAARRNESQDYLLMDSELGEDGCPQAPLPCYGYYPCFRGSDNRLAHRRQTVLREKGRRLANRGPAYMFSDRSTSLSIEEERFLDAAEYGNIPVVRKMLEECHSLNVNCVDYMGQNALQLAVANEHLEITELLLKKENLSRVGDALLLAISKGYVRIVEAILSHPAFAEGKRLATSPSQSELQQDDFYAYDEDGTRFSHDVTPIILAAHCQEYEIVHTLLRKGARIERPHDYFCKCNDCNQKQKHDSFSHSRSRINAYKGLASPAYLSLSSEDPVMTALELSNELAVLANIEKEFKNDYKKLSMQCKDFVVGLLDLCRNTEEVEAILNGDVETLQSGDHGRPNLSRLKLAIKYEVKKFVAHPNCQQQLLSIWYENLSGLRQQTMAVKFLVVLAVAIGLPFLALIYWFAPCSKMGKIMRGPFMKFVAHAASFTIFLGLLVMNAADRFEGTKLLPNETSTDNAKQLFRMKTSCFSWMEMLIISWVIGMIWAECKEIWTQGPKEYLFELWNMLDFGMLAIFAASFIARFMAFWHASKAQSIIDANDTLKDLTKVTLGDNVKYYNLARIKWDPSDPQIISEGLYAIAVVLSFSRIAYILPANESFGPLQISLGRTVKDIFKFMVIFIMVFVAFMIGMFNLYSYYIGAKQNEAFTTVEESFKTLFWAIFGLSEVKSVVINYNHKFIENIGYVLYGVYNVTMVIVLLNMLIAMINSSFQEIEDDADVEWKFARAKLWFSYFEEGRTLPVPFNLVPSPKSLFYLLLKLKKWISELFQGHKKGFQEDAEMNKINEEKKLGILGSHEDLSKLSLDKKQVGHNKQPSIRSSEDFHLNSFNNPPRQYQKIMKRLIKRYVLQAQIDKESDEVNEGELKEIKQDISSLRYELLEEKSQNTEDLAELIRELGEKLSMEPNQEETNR
Briefly: Evaluation of TRPC6 channel inhibitory activity (1), FLIPR Calcium 5 Assay Kit, OAG stimulation (Compound Nos. 1-1293). The class given is cell-based. To be noted: Human TRPC6 stably-expressing cells, OAG 30 μM, FLIPR Calcium 5 Assay Kit; read-out: Inhibitory activity (pIC50 class) (converted). A digest of the protocol: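 Cells stably expressing human TRPC6, plated 24 h before, were loaded 30 min with Calcium 5 dye plus probenecid in HEPES-HBSS. Compound was added 20 min before OAG (30 μM final) and fluorescence tracked on FLIPR. Inhibition normalised to no-compound and no-compound/no-OAG wells; pIC50 from four-parameter fit, reported as +/++/+++ categories.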
Turning to `Cc1nn(C(C)C)cc1Oc1cc(C#N)ccc1-c1ncc(CCN)cn1` [compound 803, 4-[5-(2-aminoethyl)pyrimidin-2-yl]-3-(3-methyl-1-propan-2-ylpyrazol-4-yl)oxybenzonitrile], the IC50 is less than 10 nM.

As for `Cc1nc(Oc2cc(C#N)ccc2-c2ccc(C(C)(O)CN)cc2)cc(N2CCOCC2)n1` (centres unmarked) [Compound 68, 4-[4-(1-amino-2-hydroxypropan-2-yl)phenyl]-3-(2-methyl-6-morpholin-4-ylpyrimidin-4-yl)oxybenzonitrile], the IC50 was 10 to 1000 nM.

`Cc1nc(-c2cccc(F)c2)cn1Cc1cc(C#N)ccc1-c1ncc([C@H](O)CN)cn1` [compound 1162, 4-[5-[(1S)-2-amino-1-hydroxyethyl]pyrimidin-2-yl]-3-[[4-(3-fluorophenyl)-2-methylimidazol-1-yl]methyl]benzonitrile]: the IC50 was 10 to 1000 nM.

Consider `Cn1nc(C2CC2)cc1Oc1nc(C#N)ccc1-c1ncc(CCN)cn1` [compound 1281, 5-[5-(2-aminoethyl)pyrimidin-2-yl]-6-(5-cyclopropyl-2-methylpyrazol-3-yl)oxypyridine-2-carbonitrile], for which the IC50 is 10 to 1000 nM.

On to `Cc1cc(Sc2cc(C#N)ccc2-c2ncc(CCN)cn2)cc(N2CCOCC2)n1` [compound 1260, 4-[5-(2-aminoethyl)pyrimidin-2-yl]-3-(2-methyl-6-morpholin-4-ylpyridin-4-yl)sulfanylbenzonitrile], for which the IC50 is 10 to 1000 nM.

As for `CCN(C)c1cc(Oc2cc(C#N)ccc2-c2ncc(CCN)cn2)n(C)n1` [compound 774, 4-[5-(2-aminoethyl)pyrimidin-2-yl]-3-[5-[ethyl(methyl)amino]-2-methylpyrazol-3-yl]oxybenzonitrile], the IC50 was less than 10 nM.

Take `Cc1nc(N2CCOCC2)ccc1Oc1cc(C#N)ccc1-c1ncc(CCN)cn1` [compound 921, 4-[5-(2-aminoethyl)pyrimidin-2-yl]-3-(2-methyl-6-morpholin-4-ylpyridin-3-yl)oxybenzonitrile]: the IC50 is more than 1000 nM.

As to `Cn1nc(-c2ccccn2)cc1Oc1cc(C#N)ccc1-c1ncc(CNC(C)(C)C)cn1` [compound 664, 4-[5-[(tert-butylamino)methyl]pyrimidin-2-yl]-3-(2-methyl-5-pyridin-2-ylpyrazol-3-yl)oxybenzonitrile], the IC50 is 10 to 1000 nM.

On to `N#Cc1ccc(-c2ncc(CN)cn2)c(C(=O)c2cnn(CC3CC3)c2)c1` [compound 1047, 4-[5-(aminomethyl)pyrimidin-2-yl]-3-[1-(cyclopropylmethyl)pyrazole-4-carbonyl]benzonitrile], for which the IC50 is less than 10 nM.

On to `Cn1nc(-c2cncnc2)cc1Oc1cc(C#N)ccc1-c1ncc(CN)cn1` [compound 930, 4-[5-(aminomethyl)pyrimidin-2-yl]-3-(2-methyl-5-pyrimidin-5-ylpyrazol-3-yl)oxybenzonitrile], for which the IC50 is 10 to 1000 nM.

As to `CC(C)Cc1nn(C)c(Oc2cc(C#N)ccc2-c2ccc(CCN)cc2)c1C(C)C` [Compound 243, 4-[4-(2-aminoethyl)phenyl]-3-[2-methyl-5-(2-methylpropyl)-4-propan-2-ylpyrazol-3-yl]oxybenzonitrile], the IC50 was more than 1000 nM.

On to `Cc1nc(Oc2cc(C#N)ccc2-c2ncc(CN)cn2)cc(N2CCC(F)CC2)n1` [compound 669, 4-[5-(aminomethyl)pyrimidin-2-yl]-3-[6-(4-fluoropiperidin-1-yl)-2-methylpyrimidin-4-yl]oxybenzonitrile], for which the IC50 is 10 to 1000 nM.

Take `N#Cc1ccc(-c2ccc(CCN)cc2)c(Cn2ccc(-c3ccccc3)n2)c1` [compound 1112, 4-[4-(2-aminoethyl)phenyl]-3-[(3-phenylpyrazol-1-yl)methyl]benzonitrile]: the IC50 was more than 1000 nM.

As to `Cn1nc(C2CC2)cc1Oc1cc(C#N)ccc1-c1ccc(C(N)C(=O)N2CCCCC2)cn1` (centres unmarked) [compound 486, 4-[5-(1-amino-2-oxo-2-piperidin-1-ylethyl)pyridin-2-yl]-3-(5-cyclopropyl-2-methylpyrazol-3-yl)oxybenzonitrile], the IC50 is more than 1000 nM.

Turning to `COc1ccccc1-c1cc(Oc2cc(C#N)ccc2-c2ccc(CCN)cc2)cnn1` [Compound 118, 4-[4-(2-aminoethyl)phenyl]-3-[6-(2-methoxypheny)pyridazin-4-yl]oxybenzonitrile], the IC50 is 10 to 1000 nM.

With `Cc1nc(Nc2cc(C#N)ccc2-c2ccc(CCN)cc2)cc(N2CCOCC2)n1` [Compound 2, 4-[4-(2-aminoethyl)phenyl]-3-[(2-methyl-6-morpholin-4-ylpyrimidin-4-yl)amino]benzonitrile], the IC50 is less than 10 nM.

In the case of `Cc1nc(Oc2cc(C#N)ccc2-c2ncc(CCN)cn2)cc(-c2ccccc2)n1` [Compound 275, 4-[5-(2-aminoethyl)pyrimidin-2-yl]-3-(2-methyl-6-phenylpyrimidin-4-yl)oxybenzonitrile], the IC50 was less than 10 nM.

Regarding `Cc1nc(Oc2cc(C#N)ccc2-c2ccc(N3CCNCC3)cc2)cc(N2CCOCC2)n1` [Compound 12, 3-(2-methyl-6-morpholin-4-ylpyrimidin-4-yl)oxy-4-(4-piperazin-1-ylphenyl)benzonitrile], the IC50 is more than 1000 nM.

On to `CC(=O)Nc1ccccc1-c1cc(Oc2cc(C#N)ccc2-c2ccc(CCN)cc2)cnn1` [Compound 119, N-[2-[5-[2-[4-(2-aminoethyl)phenyl]-5-cyanophenoxy]pyridazin-3-yl]phenyl]acetamide], for which the IC50 was more than 1000 nM.

Turning to `CC(C)Cc1cc(Oc2cc(C#N)ccc2-c2ccc(CCN)cn2)n(C)n1` [Compound 228, 4-[5-(2-aminoethyl)pyridin-2-yl]-3-[2-methyl-5-(2-methylpropyl)pyrazol-3-yl]oxybenzonitrile], the IC50 is less than 10 nM.

On to `CN(C)c1nnc(Oc2cc(C#N)ccc2-c2ncc(CCN)cn2)s1` [compound 727, 4-[5-(2-aminoethyl)pyrimidin-2-yl]-3-[[5-(dimethylamino)-1,3,4-thiadiazol-2-yl]oxy]benzonitrile], for which the IC50 was 10 to 1000 nM.

With `Cn1nc(C2CC2)cc1Oc1cc(C#N)ccc1-c1cc(C(O)CN)ccn1` (centres unmarked) [compound 519, 4-[4-(2-amino-1-hydroxyethyl)pyridin-2-yl]-3-(5-cyclopropyl-2-methylpyrazol-3-yl)oxybenzonitrile], the IC50 is 10 to 1000 nM.

As to `CN(C)c1cc(Cc2cc(C#N)ccc2-c2ncc(CCN)cn2)n(C)n1` [compound 1216, 4-[5-(2-aminoethyl)pyrimidin-2-yl]-3-[[5-(dimethylamino)-2-methylpyrazol-3-yl]methyl]benzonitrile], the IC50 was 10 to 1000 nM.

Regarding `Cn1nccc1Oc1cc(C#N)ccc1-c1ncc(CCN)cn1` [compound 311, 4-[5-(2-aminoethyl)pyrimidin-2-yl]-3-(2-methylpyrazol-3-yl)oxybenzonitrile], the IC50 was more than 1000 nM.

Consider `CC(C)(C)OCCOc1cc(Oc2cc(C#N)ccc2-c2ccc(CCN)cc2)cnn1` [Compound 127, 4-[4-(2-aminoethyl)phenyl]-3-[6-[2-[(2-methylpropan-2-yl)oxy]ethoxy]pyridazin-4-yl]oxybenzonitrile], for which the IC50 was more than 1000 nM.

Regarding `Cn1nc(C2CC2)cc1Oc1cc(C#N)ccc1-c1ccc(CN2CCNCC2)cn1` [compound 779, 3-(5-cyclopropyl-2-methylpyrazol-3-yl)oxy-4-[5-(piperazin-1-ylmethyl)pyridin-2-yl]benzonitrile], the IC50 was more than 1000 nM.
